Assay results: patent US12428378B2, “Methods and materials for increasing level of phosphorylated AMPK protein” (University of Pittsburgh—Of the Commonwealth System of …, priority 2019, dated 2025)

Test system: pAMPK
Experiment: pAMPK immunostaining chemiluminescence assay in Beas2B cells
Format: cell-based
Conditions: Homo sapiens, BEAS-2B, 18 h, DMEM no glucose media, compounds 3-34, 36-44, 47-60 tested as HCl salts, read-out: efficacy (minimal compound concentration needed to increase pAMPK by 30%)
Experimental: Beas2B cells were plated in 384 white nunc plate (4000 cells per well) for overnight. Compounds were serially diluted in DMEM no glucose media using the liquid handler. Cells were washed once using Biotek EL406 before compound addition for additional 18 hours. Cells were washed and fixed with PFA before immunostained with pAMPK primary antibody and anti-Rabbit HRP secondary antibody. Finally, 25 μl of ECL reagent will be added to cells, and chemical luminescence signal will be counted using plate reader. Compounds efficacies (μM) were determined by the minimal compound concentration needed to increase pAMPK by 30%. Activity: “+” equals >10 μM; “++” equals between ≤10 μM and >1 μM; and “+++” equals ≤1 μM.

| Structure (SMILES) | EC (30% increase) [µM] |
| --- | --- |
| O[C@@H](COc1ccc(C(F)(F)F)cc1)CN1Cc2ccccc2C[C@@H]1c1cccnc1 [compound 130] | ≤ 1 |
| O[C@H](COc1ccc(C(F)(F)F)cc1)CN1Cc2ccccc2C[C@@H]1c1cccnc1 [compound 131] | ≤ 1 |
| OC(COc1ccc(C(F)(F)F)cc1)CN1Cc2ccccc2C[C@H]1c1cccnc1 (stereo partly shown) [compound 132] | ≤ 1 |
| O[C@H](COc1ccc(C(F)(F)F)cc1)CN1Cc2ccccc2C[C@H]1c1cccnc1 [compound 133] | ≤ 1 |
| O[C@@H](COc1ccc(C(F)(F)F)cc1)CN1Cc2ccccc2C[C@H]1c1cccnc1 [compound 134] | ≤ 1 |
| [2H]C([2H])(c1cccnc1)N(CCCOc1ccc(C(F)(F)F)cc1)Cc1ccccc1C [compound 135] | ≤ 1 |
| FC(F)(F)c1ccc(OCCCN(Cc2ccccc2)Cc2cccnc2)cc1 [compound 136] | ≤ 1 |
| O=C(C(O)COc1ccc(C(F)(F)F)cc1)N(Cc1cccnc1)Cc1ccccc1Cl (stereo not shown) [compound 137] | ≤ 1 |
| CC(c1cccnc1)N(Cc1ccccc1Cl)CC(O)COc1ccc(C(F)(F)F)cc1 (stereo not shown) [compound 138] | > 10 |
| O=C(c1cccnc1)N(Cc1ccccc1Cl)CC(O)COc1ccc(C(F)(F)F)cc1 (stereo not shown) [compound 141] | ≤ 1 |
| FC(F)(F)c1ccc(OCC2(CN(Cc3cccnc3)Cc3ccccc3Cl)CC2)cc1 [compound 142] | ≤ 1 |
| Fc1ccccc1CN(Cc1cccnc1)CC1(COc2ccc(C(F)(F)F)cc2)CC1 [compound 143] | ≤ 1 |
| Cn1cncc1C(=O)N(Cc1c(Cl)cccc1Cl)CC(O)COc1ccc(C(F)(F)F)cc1 (stereo not shown) [compound 144] | 1 to 10 |
| Cn1cncc1C(=O)N(Cc1ccccc1C(F)(F)F)CC(O)COc1ccc(C(F)(F)F)cc1 (stereo not shown) [compound 145] | 1 to 10 |
| Cc1ncccc1CN(CC(O)COc1ccc(C(F)(F)F)cc1)C(=O)c1cncn1C (stereo not shown) [compound 146] | > 10 |
| Cn1cncc1CN(Cc1ccccc1Cl)CC(O)COc1ccc(F)cc1F (stereo not shown) [compound 147] | > 10 |
| Cn1cncc1C(=O)N(Cc1ccccc1Cl)CC(O)COc1cnc(C(F)(F)F)nc1 (stereo not shown) [compound 148] | > 10 |
| Cn1ccnc1C1Cc2ccccc2CN1CC(O)COc1ccc(C(F)(F)F)cc1 (stereo not shown) [compound 149] | 1 to 10 |
| FC(F)(F)c1ccc(OCCCN2Cc3ccccc3C[C@@H]2c2cccnc2)cc1 [compound 150] | 1 to 10 |
| FC(F)(F)c1ccc(OCCCN2Cc3ccccc3C[C@H]2c2cccnc2)cc1 [compound 151] | ≤ 1 |

| Structure (SMILES) | EC (30% increase) [µM] |
| --- | --- |
| Cc1ccccc1CN(CC(O)COc1ccc(C(F)(F)F)cc1)C(=O)c1ccnn1C (stereo not shown) [compound 152] | 1 to 10 |
| Cn1cncc1C(=O)N(Cc1ccccc1F)CC(O)COc1ccc(C(F)(F)F)cc1 (stereo not shown) [compound 153] | 1 to 10 |
| Cc1ccccc1CN(CCOc1ccc(C(F)(F)F)cc1)Cc1cccnc1 [compound 154] | ≤ 1 |
| FC(F)(F)c1ccc(OCCN(Cc2cccnc2)Cc2ccccc2Cl)cc1 [compound 155] | ≤ 1 |
| Fc1ccccc1CN(CCOc1ccc(C(F)(F)F)cc1)Cc1cccnc1 [compound 156] | ≤ 1 |
| Cn1ccnc1CN(CCOc1ccc(C(F)(F)F)cc1)Cc1ccccc1Cl [compound 157] | ≤ 1 |
| Cn1ccnc1CN(CCOc1ccc(C(F)(F)F)cc1)Cc1ccccc1F [compound 158] | ≤ 1 |
| Cn1cncc1CN(CCOc1ccc(C(F)(F)F)cc1)Cc1ccccc1Cl [compound 159] | ≤ 1 |
| Cn1cncc1CN(CCOc1ccc(C(F)(F)F)cc1)Cc1ccccc1F [compound 160] | ≤ 1 |
| Cn1cncc1C(=O)N(CC(=O)COc1ccc(C(F)(F)F)cc1)Cc1ccccc1Cl [compound 161] | ≤ 1 |
| Cc1ccccc1CN(CC(O)COc1ccc(C(F)(F)F)cc1)C(C)c1nccn1C (stereo not shown) [compound 162] | > 10 |
| [2H]C(C)(c1cccnc1)N(Cc1ccccc1Cl)CC(O)COc1ccc(C(F)(F)F)cc1 (stereo not shown) [compound 163] | > 10 |
| FC(COc1ccc(C(F)(F)F)cc1)CN(Cc1cccnc1)Cc1ccccc1Cl (stereo not shown) [compound 164] | ≤ 1 |
| Cc1ccccc1CN(Cc1cccnc1)CC(F)COc1ccc(C(F)(F)F)cc1 (stereo not shown) [compound 165] | ≤ 1 |
| Cn1cncc1C(=O)N(CCCOc1cnc(C(F)(F)F)nc1)Cc1ccccc1Cl [compound 168] | > 10 |
| Cc1ccccc1CN(CCCOc1cnc(C(F)(F)F)nc1)Cc1cccnc1 [compound 169] | ≤ 1 |
| Cc1ccccc1CN(CCOc1ccc(C(F)(F)F)cc1)Cc1cncn1C [compound 171] | 1 to 10 |
| FC(F)(F)c1ccc(OCCN(Cc2cncs2)Cc2ccccc2Cl)cc1 [compound 172] | ≤ 1 |
| Fc1ccccc1CN(CCOc1ccc(C(F)(F)F)cc1)Cc1cncs1 [compound 173] | ≤ 1 |
| FC(F)(F)c1ccc(OCCCN(Cc2cccnc2)Cc2ccccc2C(F)(F)F)cc1 [compound 174] | ≤ 1 |

| Structure (SMILES) | EC (30% increase) [µM] |
| --- | --- |
| Cn1ccnc1C1Cc2ccccc2CN1CCCOc1ccc(C(F)(F)F)cc1 (stereo not shown) [compound 175] | ≤ 1 |
| Cc1ccccc1CN(CC(O)COc1ccc(C(F)(F)F)cc1)C(C)c1cncs1 (stereo not shown) [compound 176] | 1 to 10 |
| [2H]C(C)(c1cccnc1)N(Cc1ccccc1C)CC(O)COc1ccc(C(F)(F)F)cc1 (stereo not shown) [compound 177] | > 10 |
| CC1(c2cccnc2)Cc2ccccc2CN1CC(O)COc1ccc(C(F)(F)F)cc1 (stereo not shown) [compound 178] | ≤ 1 |
| Cc1ccccc1CN(Cc1cccnn1)CC(C)(C)COc1ccc(C(F)(F)F)cc1 [compound 181] | ≤ 1 |
| Cc1ccccc1CN(CCCOc1ccc(C(F)(F)F)cc1)Cc1ccnnc1 [compound 182] | ≤ 1 |
| Cc1ccccc1CN(CCCOc1ccc(C(F)(F)F)cc1)Cc1cccnn1 [compound 183] | ≤ 1 |
| CC(C)(COc1ccc(C(F)(F)F)cc1)CN(Cc1cccnc1)Cc1cccnc1 [compound 184] | ≤ 1 |
| CC(C)(COc1ccc(C(F)(F)F)cc1)CN(Cc1cccnc1)Cc1ccccc1F [compound 185] | ≤ 1 |
| CC(C)(COc1ccc(C(F)(F)F)cc1)CN(Cc1cccnc1)Cc1ccccc1Cl [compound 186] | ≤ 1 |
| COC(=O)C1c2ccccc2CCN1CCCOc1ccc(C(F)(F)F)cc1 (stereo not shown) [compound 187] | ≤ 1 |
| OCC1c2ccccc2CCN1CCCOc1ccc(C(F)(F)F)cc1 (stereo not shown) [compound 188] | ≤ 1 |
| Cc1ccc2c(c1)CC(c1nccn1C)N(CC(O)COc1ccc(C(F)(F)F)cc1)C2 (stereo not shown) [compound 189] | > 10 |
| Cc1ccccc1CN(Cc1cccnc1)CC(C)(C)COc1cnc(C(F)(F)F)nc1 [compound 190] | 1 to 10 |
| Cc1ccccc1CN(Cc1cccnc1)CC(C)COc1ccc(C(F)(F)F)cc1 (stereo not shown) [compound 191] | ≤ 1 |
| Cc1ccccc1CN(CC(C)(C)COc1ccc(C(F)(F)F)cc1)C(=O)c1cncn1C [compound 192] | ≤ 1 |
| Cn1cncc1C(=O)N(Cc1cccnc1)CC(C)(C)COc1ccc(C(F)(F)F)cc1 [compound 193] | ≤ 1 |
| Cn1cncc1C(=O)N(Cc1ccccc1Cl)CC(C)(C)COc1ccc(C(F)(F)F)cc1 [compound 194] | ≤ 1 |
